Data taken from publication PMC12811658, “Design, Synthesis, and Structural Evolution of Pseudo‐Natural Product IDO1 Inhibitors and Degraders” (Angewandte Chemie (International Ed. in English), 2025).
“Also recorded” adds a separate entry of the source.

Test system: Kyn levels in BxPC3 cells (kynurenine generated by IDO1)
Assay: Cellular Kyn assay (automated Kyn screening assay)
Assay type: cell-based
Settings: for IC50: Homo sapiens, BXPC-3, 48 h, IFN-γ, L-Trp and compounds 48 h, mean ± SD, read-out: IC50 (Kyn assay), reduction of kynurenine levels

| SMILES | IC50 | further results |
| --- | --- | --- |
| CC1(C)CCC(C)(C)c2cc(S(=O)(=O)N3C[C@H]4C[C@H]5C[C@H](C5(C)C)[C@@]4(COC(=O)Nc4ccc(I)cc4)C3)ccc21 [compound 73, ((3aS,4R,6R,7aS)-5,5-dimethyl-2-((5,5,8,8-tetramethyl-5,6,7,8-tetrahydronaphthalen-2-yl)sulfonyl)octahydro-3aH-4,6-methanoisoindol-3a-yl)methyl (4-iodophenyl)carbamate] | 450 ± 390 nM |  |
| CN(C)C(=O)C(C)(C)c1ccc(S(=O)(=O)N2C[C@H]3C[C@H]4C[C@H](C4(C)C)[C@@]3(COC(=O)Nc3ccc(I)cc3)C2)cc1 [compound 87, ((3aS,4R,6R,7aS)-2-((4-(1-(dimethylamino)-2-methyl-1-oxopropan-2-yl)phenyl)sulfonyl)-5,5-dimethyloctahydro-3aH-4,6-methanoisoindol-3a-yl)methyl (4-iodophenyl)carbamate] | 850 ± 270 nM |  |
| CC(C)(C)c1ccc(S(=O)(=O)N2C[C@H]3C[C@H]4C[C@H](C4(C)C)[C@@]3(COC(=O)Nc3ccc(C(F)(F)F)cc3)C2)cc1 [compound 45, ((3aS,4R,6R,7aS)-2-((4-(tert-butyl)phenyl)sulfonyl)-5,5-dimethyloctahydro-3aH-4,6-methanoisoindol-3a-yl)methyl (4-(trifluoromethyl)phenyl)carbamate] | > 10000 nM |  |
| CC(C)(C)c1ccc(S(=O)(=O)N2CC3C[C@H]4C[C@H](C4(C)C)[C@]3(COC(=O)c3ccccc3)C2)cc1 (stereo partly drawn) [compound 15, ((3aR,4R,6R)-2-((4-(tert-butyl)phenyl)sulfonyl)-5,5-dimethyloctahydro-3aH-4,6-methanoisoindol-3a-yl)methyl benzoate] |  | activity in cellular Kyn assay (in words): did not improve activity; also recorded: inactive |
| CC(C)(C)c1ccc(S(=O)(=O)N2C[C@H]3C[C@H]4C[C@H](C4(C)C)[C@@]3(COC(=O)Nc3cccc(N=[N+]=[N-])c3)C2)cc1 [compound 41, ((3aS,4R,6R,7aS)-2-((4-(tert-butyl)phenyl)sulfonyl)-5,5-dimethyloctahydro-3aH-4,6-methanoisoindol-3a-yl)methyl (3-azidophenyl)carbamate] | > 10000 nM |  |
| CCc1ccc(NC(=O)OC[C@]23CN(S(=O)(=O)c4ccc(C(C)(C)C)cc4)C[C@H]2C[C@H]2C[C@@H]3C2(C)C)cc1 [compound 28, ((3aS,4R,6R,7aS)-2-((4-(tert-butyl)phenyl)sulfonyl)-5,5-dimethyloctahydro-3aH-4,6-methanoisoindol-3a-yl)methyl (4-ethylphenyl)carbamate] | 2900 ± 300 nM |  |
| CC1(C)[C@H]2C[C@@H]3CN(S(=O)(=O)c4ccc(-c5ccccc5)cc4)C[C@]3(COC(=O)Nc3ccc(I)cc3)[C@@H]1C2 [compound 70, ((3aS,4R,6R,7aS)-2-([1,1'-biphenyl]-4-ylsulfonyl)-5,5-dimethyloctahydro-3aH-4,6-methanoisoindol-3a-yl)methyl (4-iodophenyl)carbamate] | 340 ± 170 nM |  |
| CC(C)[C@]12CC(OC(=O)Nc3ccc(I)cc3)[C@]3(CCN(S(=O)(=O)c4ccc(C(C)(C)C)cc4)C3)[C@H]1C2 (stereo partly drawn) [compound 24, (1S,2R,5S)-1'-((4-(tert-butyl)phenyl)sulfonyl)-5-isopropylspiro[bicyclo[3.1.0]hexane-2,3'-pyrrolidin]-3-yl (4-iodophenyl)carbamate] |  | activity in cellular Kyn assay (in words): inactive |
| CC(C)[C@]12C[C@@H](OC(=O)Nc3ccc(I)cc3)[C@]3(CCN(S(=O)(=O)c4ccc(C(C)(C)C)cc4)C3)[C@H]1C2 [compound 23, (1S,2R,3R,5S)-1'-((4-(tert-butyl)phenyl)sulfonyl)-5-isopropylspiro[bicyclo[3.1.0]hexane-2,3'-pyrrolidin]-3-yl (4-iodophenyl) carbamate] |  | activity in cellular Kyn assay (in words): inactive |
| Cc1ccc(S(=O)(=O)N2C[C@H]3C[C@H]4C[C@H](C4(C)C)[C@@]3(COC(=O)Nc3ccc(I)cc3)C2)cn1 [compound 62, ((3aS,4R,6R,7aS)-5,5-dimethyl-2-((6-methylpyridin-3-yl)sulfonyl)octahydro-3aH-4,6-methanoisoindol-3a-yl)methyl (4-iodophenyl)carbamate] | 1300 ± 300 nM |  |
| Cc1ccc(NC(=O)OC[C@]23CN(S(=O)(=O)C4CCCCC4)C[C@H]2C[C@H]2C[C@@H]3C2(C)C)cc1 [compound 55, ((3aS,4R,6R,7aS)-2-(cyclohexylsulfonyl)-5,5-dimethyloctahydro-3aH-4,6-methanoisoindol-3a-yl)methyl p-tolylcarbamate] | 5100 ± 400 nM |  |
| CC(C)(C)c1ccc(S(=O)(=O)N2C[C@H]3C[C@H]4C[C@H](C4(C)C)[C@@]3(COC(=O)Nc3ccccc3)C2)cc1 [compound 32, ((3aS,4R,6R,7aS)-2-((4-(tert-butyl)phenyl)sulfonyl)-5,5-dimethyloctahydro-3aH-4,6-methanoisoindol-3a-yl)methyl phenylcarbamate] | 7000 ± 1600 nM |  |
| CC(C)(C)c1ccc(S(=O)(=O)N2C[C@H]3C[C@H]4C[C@H](C4(C)C)[C@@]3(COC(=O)Nc3ccc(F)cc3)C2)cc1 [compound 34, ((3aS,4R,6R,7aS)-2-((4-(tert-butyl)phenyl)sulfonyl)-5,5-dimethyloctahydro-3aH-4,6-methanoisoindol-3a-yl)methyl (4-fluorophenyl)carbamate] | > 10000 nM |  |
| CC(C)(C)c1ccc(S(=O)(=O)N2C[C@H]3C[C@H]4C[C@H](C4(C)C)[C@@]3(COC(=O)Nc3ccc(C#CCCO)cc3)C2)cc1 [compound 53, ((3aS,4R,6R,7aS)-2-((4-(tert-butyl)phenyl)sulfonyl)-5,5-dimethyloctahydro-3aH-4,6-methanoisoindol-3a-yl)methyl (4-(4-hydroxybut-1-yn-1-yl)phenyl)carbamate] | 2500 ± 200 nM |  |
| CC(C)(C)c1ccc(C(=O)N2C[C@H]3C[C@H]4C[C@H](C4(C)C)[C@@]3(COC(=O)Nc3ccc(I)cc3)C2)cc1 [compound 16, ((3aS,4R,6R,7aS)-2-(4-(tert-butyl)benzoyl)-5,5-dimethyloctahydro-3aH-4,6-methanoisoindol-3a-yl)methyl (4-iodophenyl)carbamate] |  | activity in cellular Kyn assay (in words): abolished activity |
| Cc1ccccc1S(=O)(=O)N1C[C@H]2C[C@H]3C[C@H](C3(C)C)[C@@]2(COC(=O)Nc2ccc(I)cc2)C1 [compound 66, ((3aS,4R,6R,7aS)-5,5-dimethyl-2-(o-tolylsulfonyl)octahydro-3aH-4,6-methanoisoindol-3a-yl)methyl (4-iodophenyl)carbamate] | 650 ± 270 nM |  |
| CC(C)(C)c1ccc(S(=O)(=O)N2C[C@@H]3C[C@@H]4C[C@@H](C4(C)C)[C@]3(COC(=O)Nc3ccc(I)cc3)C2)cc1 [compound 20, ((3aR,4S,6S,7aR)-2-((4-(tert-butyl)phenyl)sulfonyl)-5,5-dimethyloctahydro-3aH-4,6-methanoisoindol-3a-yl)methyl (4-iodophenyl)carbamate] |  | fold lower activity than 14 (iDeg-2) in Kyn assay: 16 fold |
| CCOC(=O)C(C)(C)c1ccc(S(=O)(=O)N2C[C@H]3C[C@H]4C[C@H](C4(C)C)[C@@]3(COC(=O)Nc3ccc(I)cc3)C2)cc1 [compound 89, Ethyl 2-(4-(((3aS,4R,6R,7aS)-3a-((((4-iodophenyl)carbamoyl)oxy)methyl)-5,5-dimethyloctahydro-2H-4,6-methanoisoindol-2-yl)sulfonyl)phenyl)-2-methylpropanoate] | 250 ± 80 nM |  |
| CC(C)(C(=O)N1CCOCC1)c1ccc(S(=O)(=O)N2C[C@H]3C[C@H]4C[C@H](C4(C)C)[C@@]3(COC(=O)Nc3ccc(I)cc3)C2)cc1 [compound 86, ((3aS,4R,6R,7aS)-5,5-dimethyl-2-((4-(2-methyl-1-morpholino-1-oxopropan-2-yl)phenyl)sulfonyl)octahydro-3aH-4,6-methanoisoindol-3a-yl)methyl (4-iodophenyl)carbamate] | 7300 ± 1400 nM |  |
| CC1(C)[C@H]2C[C@@H]3CN(S(=O)(=O)c4ccc5ccccc5c4)C[C@]3(COC(=O)Nc3ccc(I)cc3)[C@@H]1C2 [compound 64, ((3aS,4R,6R,7aS)-5,5-dimethyl-2-(naphthalen-2-ylsulfonyl)octahydro-3aH-4,6-methanoisoindol-3a-yl)methyl (4-iodophenyl)carbamate] | 400 ± 100 nM |  |
| CC(C)(C)c1ccc(S(=O)(=O)N2C[C@H]3C[C@H]4C[C@H](C4(C)C)[C@@]3(COC(=O)Nc3ccc(C#N)cc3)C2)cc1 [compound 47, ((3aS,4R,6R,7aS)-2-((4-(tert-butyl)phenyl)sulfonyl)-5,5-dimethyloctahydro-3aH-4,6-methanoisoindol-3a-yl)methyl (4-cyanophenyl)carbamate] | 2100 ± 800 nM |  |
| CC(C)(C)c1ccc(-c2ccc(S(=O)(=O)N3C[C@H]4C[C@H]5C[C@H](C5(C)C)[C@@]4(COC(=O)Nc4ccc(I)cc4)C3)cc2)cc1 [compound 76, ((3aS,4R,6R,7aS)-2-((4'-(tert-butyl)-[1,1'-biphenyl]-4-yl)sulfonyl)-5,5-dimethyloctahydro-3aH-4,6-methanoisoindol-3a-yl)methyl (4-iodophenyl)carbamate] | > 10000 nM |  |
| CCC(C)(C)c1ccc(S(=O)(=O)N2C[C@H]3C[C@H]4C[C@H](C4(C)C)[C@@]3(COC(=O)Nc3ccc(I)cc3)C2)cc1 [compound 75, ((3aS,4R,6R,7aS)-5,5-dimethyl-2-((4-(tert-pentyl)phenyl)sulfonyl)octahydro-3aH-4,6-methanoisoindol-3a-yl)methyl (4-iodophenyl)carbamate] | 190 ± 70 nM |  |
| CN(C)CC(C)(C)c1ccc(S(=O)(=O)N2C[C@H]3C[C@H]4C[C@H](C4(C)C)[C@@]3(COC(=O)Nc3ccc(I)cc3)C2)cc1 [compound 88, ((3aS,4R,6R,7aS)-2-((4-(1-(dimethylamino)-2-methylpropan-2-yl)phenyl)sulfonyl)-5,5-dimethyloctahydro-3aH-4,6-methanoisoindol-3a-yl)methyl (4-iodophenyl)carbamate] | 2500 ± 100 nM |  |
| CC(C)(C)Cc1ccc(S(=O)(=O)N2C[C@H]3C[C@H]4C[C@H](C4(C)C)[C@@]3(COC(=O)Nc3ccc(I)cc3)C2)cc1 [compound 74, ((3aS,4R,6R,7aS)-5,5-dimethyl-2-((4-neopentylphenyl)sulfonyl)octahydro-3aH-4,6-methanoisoindol-3a-yl)methyl (4-iodophenyl)carbamate] | 230 ± 60 nM |  |
